Data reported in patent US12139520B2 (priority 2020, dated 2024).
Numbered stars: 1 amine (or outer) side, 2 acyl side, 3 side chain; on linkers, the order of the positions; unused ones are H or OH. Bridge positions count the residues as written; N and C are the ends. Square brackets hold non-standard residues; d marks the D form. Peptide text beside a SMILES is read from it. * marks the point of attachment. C20 diacid = O=C(O)CCCCCCCCCCCCCCCCCCC(=O)*; γGlu = O=C(O)[C@H](CCC(=O)[*:2])N[*:1]; Hyp = O=C(O)[C@@H]1C[C@@H](O)CN1

These compounds were tested against T1, hAMY3 receptor (Homo sapiens, UniProt O60896+P30988) (assay: cAMP assay for in vitro receptor activation, hAMY3-R). Settings: cAMP assay, hAMY3 receptor; read-out: hAMY3R EC50.
T1 sequence (P30988 25-474): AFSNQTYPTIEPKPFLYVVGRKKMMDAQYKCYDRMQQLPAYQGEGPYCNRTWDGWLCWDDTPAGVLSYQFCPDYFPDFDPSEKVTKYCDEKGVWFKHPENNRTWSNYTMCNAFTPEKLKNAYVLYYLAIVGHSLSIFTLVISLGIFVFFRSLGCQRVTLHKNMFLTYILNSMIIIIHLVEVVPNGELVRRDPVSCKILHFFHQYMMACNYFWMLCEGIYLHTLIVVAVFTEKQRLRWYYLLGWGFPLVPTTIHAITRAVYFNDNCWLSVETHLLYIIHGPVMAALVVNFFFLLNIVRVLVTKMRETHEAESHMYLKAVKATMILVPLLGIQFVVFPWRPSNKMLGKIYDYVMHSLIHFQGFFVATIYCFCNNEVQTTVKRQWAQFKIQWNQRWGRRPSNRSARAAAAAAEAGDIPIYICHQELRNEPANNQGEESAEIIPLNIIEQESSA
T1 sequence (O60896 24-148 partner): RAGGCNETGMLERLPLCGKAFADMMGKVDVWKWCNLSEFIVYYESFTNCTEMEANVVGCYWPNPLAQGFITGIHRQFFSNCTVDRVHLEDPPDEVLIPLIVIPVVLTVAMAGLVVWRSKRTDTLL
Assay type: cell-based
Summary of the method: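 Monoclonal cell line stably overexpressing hAMY3 receptor, plated in DPBS with 0.05% casein and 0.5 mM IBMX, was stimulated with graded compound doses for 30 min at room temperature. cAMP accumulation was read by time-resolved FRET one hour after adding detection reagents.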
CC[C@H](C)[C@H](NC(=O)[C@H](CCC(N)=O)NC(=O)[C@H](Cc1c[nH]cn1)NC(=O)[C@H](C)NC(=O)[C@H](CC(C)C)NC(=O)[C@H](CCCNC(=N)N)NC(=O)[C@H](CCC(N)=O)NC(=O)[C@@H](NC(=O)[C@@H](NC(=O)[C@@H]1CSSC[C@H](NC(=O)[C@H](CCCCN)NC(=O)CC[C@H](NC(=O)CCCCCCCCCCCCCCCCCCC(=O)O)C(=O)O)C(=O)N[C@@H](CC(N)=O)C(=O)N[C@@H]([C@@H](C)O)C(=O)N[C@@H](C)C(=O)N[C@@H]([C@@H](C)O)C(=O)N1)[C@@H](C)O)C(C)C)C(=O)N[C@@H](Cc1ccc(O)cc1)C(=O)N[C@@H](CCC(N)=O)C(=O)N[C@@H](Cc1ccccc1)C(=O)N[C@H](C(=O)N[C@@H](CC(N)=O)C(=O)N[C@@H](CCCCN)C(=O)N[C@@H](CC(=O)O)C(=O)N[C@@H](CCCCN)C(=O)N[C@@H](CC(=O)O)C(=O)N[C@@H](CC(N)=O)C(=O)N[C@H](C(=O)N[C@@H](C)C(=O)N1CCC[C@H]1C(=O)N1CCC[C@H]1C(=O)N[C@H](C(=O)N[C@@H](CC(N)=O)C(=O)N[C@H](C(=O)NCC(=O)N[C@@H](CO)C(=O)N[C@@H](CC(N)=O)C(=O)NCC(=O)N1C[C@H](O)C[C@H]1C(N)=O)C(C)C)[C@@H](C)O)C(C)C)[C@@H](C)O [compound 82] ({C20 diacid-γGlu}-KCNTATCTVQRLAHQIYQFTNKDKDNVAPPTNVGSNG[Hyp]-NH2; disulfide 2-7) was tested, and the EC50 was 0.015 nM.
With CC[C@H](C)[C@H](NC(=O)[C@H](CCC(N)=O)NC(=O)[C@H](Cc1c[nH]cn1)NC(=O)[C@H](C)NC(=O)[C@H](CC(C)C)NC(=O)[C@H](CCCNC(=N)N)NC(=O)[C@H](CCC(N)=O)NC(=O)[C@@H](NC(=O)[C@@H](NC(=O)[C@@H]1CSSC[C@H](NC(=O)[C@H](CCCCN)NC(=O)CC[C@H](NC(=O)CCCCCCCCCCCCCCCCCCC(=O)O)C(=O)O)C(=O)N[C@@H](CC(N)=O)C(=O)N[C@@H]([C@@H](C)O)C(=O)N[C@@H](C)C(=O)N[C@@H]([C@@H](C)O)C(=O)N1)[C@@H](C)O)C(C)C)C(=O)N[C@@H](Cc1ccc(O)cc1)C(=O)N[C@@H](CCC(N)=O)C(=O)N[C@@H](Cc1ccccc1)C(=O)N[C@@H](C)C(=O)N[C@@H](CC(=O)O)C(=O)N[C@@H](CCCCN)C(=O)N[C@@H](CC(=O)O)C(=O)N[C@@H](CCCCN)C(=O)N[C@@H](CC(=O)O)C(=O)N[C@@H](CC(N)=O)C(=O)N[C@H](C(=O)N[C@@H](C)C(=O)N1CCC[C@H]1C(=O)N1CCC[C@H]1C(=O)N[C@H](C(=O)N[C@@H](CC(N)=O)C(=O)N[C@H](C(=O)NCC(=O)N[C@@H](CO)C(=O)N[C@@H](CC(N)=O)C(=O)NCC(=O)N1C[C@H](O)C[C@H]1C(N)=O)C(C)C)[C@@H](C)O)C(C)C [compound 83] ({C20 diacid-γGlu}-KCNTATCTVQRLAHQIYQFADKDKDNVAPPTNVGSNG[Hyp]-NH2; disulfide 2-7) the EC50 was 0.015 nM.
CC[C@H](C)[C@H](NC(=O)[C@H](CCC(N)=O)NC(=O)[C@H](Cc1c[nH]cn1)NC(=O)[C@H](C)NC(=O)[C@H](CC(C)C)NC(=O)[C@H](CCCNC(=N)N)NC(=O)[C@H](CCC(N)=O)NC(=O)[C@@H](NC(=O)[C@@H](NC(=O)[C@@H]1CSSC[C@H](NC(=O)[C@H](CCCCN)NC(=O)CC[C@H](NC(=O)CCCCCCCCCCCCCCCCCCC(=O)O)C(=O)O)C(=O)N[C@@H](CC(N)=O)C(=O)N[C@@H]([C@@H](C)O)C(=O)N[C@@H](C)C(=O)N[C@@H]([C@@H](C)O)C(=O)N1)[C@@H](C)O)C(C)C)C(=O)N[C@@H](Cc1ccc(O)cc1)C(=O)N[C@@H](CCC(N)=O)C(=O)N[C@@H](Cc1ccccc1)C(=O)N[C@H](C(=O)N[C@@H](CC(=O)O)C(=O)N[C@@H](CCCCN)C(=O)N[C@@H](CC(N)=O)C(=O)N[C@@H](CCCCN)C(=O)N[C@@H](CC(=O)O)C(=O)N[C@@H](CC(N)=O)C(=O)N[C@H](C(=O)N[C@@H](C)C(=O)N1CCC[C@H]1C(=O)N1CCC[C@H]1C(=O)N[C@H](C(=O)N[C@@H](CC(N)=O)C(=O)N[C@H](C(=O)NCC(=O)N[C@@H](CO)C(=O)N[C@@H](CC(N)=O)C(=O)NCC(=O)N1C[C@H](O)C[C@H]1C(N)=O)C(C)C)[C@@H](C)O)C(C)C)[C@@H](C)O [compound 91] ({C20 diacid-γGlu}-KCNTATCTVQRLAHQIYQFTDKNKDNVAPPTNVGSNG[Hyp]-NH2; disulfide 2-7) was tested, and the EC50 was 0.016 nM.
Compound CC[C@H](C)[C@H](NC(=O)[C@H](CCC(N)=O)NC(=O)[C@H](Cc1c[nH]cn1)NC(=O)[C@H](C)NC(=O)[C@H](CC(C)C)NC(=O)[C@H](CCCNC(=N)N)NC(=O)[C@H](CCC(N)=O)NC(=O)[C@@H](NC(=O)[C@@H](NC(=O)[C@@H]1CSSC[C@H](NC(=O)[C@H](CCCCN)NC(=O)CC[C@H](NC(=O)CCCCCCCCCCCCCCCCCCC(=O)O)C(=O)O)C(=O)N[C@@H](CC(N)=O)C(=O)N[C@@H]([C@@H](C)O)C(=O)N[C@@H](C)C(=O)N[C@@H]([C@@H](C)O)C(=O)N1)[C@@H](C)O)C(C)C)C(=O)N[C@@H](C)C(=O)N[C@@H](CCC(N)=O)C(=O)N[C@@H](Cc1ccccc1)C(=O)N[C@H](C(=O)N[C@@H](CC(=O)O)C(=O)N[C@@H](CCCCN)C(=O)N[C@@H](CC(=O)O)C(=O)N[C@@H](CCCCN)C(=O)N[C@@H](CC(=O)O)C(=O)N1CCC[C@H]1C(=O)N[C@H](C(=O)N[C@@H](C)C(=O)N1CCC[C@H]1C(=O)N1CCC[C@H]1C(=O)N[C@H](C(=O)N[C@@H](CC(N)=O)C(=O)N[C@H](C(=O)NCC(=O)N[C@@H](CO)C(=O)N[C@@H](CC(N)=O)C(=O)NCC(=O)N1C[C@H](O)C[C@H]1C(N)=O)C(C)C)[C@@H](C)O)C(C)C)[C@@H](C)O [compound 92] ({C20 diacid-γGlu}-KCNTATCTVQRLAHQIAQFTDKDKDPVAPPTNVGSNG[Hyp]-NH2; disulfide 2-7) has an EC50 of 0.016 nM.
Work on CC[C@H](C)[C@H](NC(=O)[C@H](CCC(N)=O)NC(=O)[C@H](Cc1c[nH]cn1)NC(=O)[C@H](C)NC(=O)[C@H](CC(C)C)NC(=O)[C@H](CCCNC(=N)N)NC(=O)[C@H](CCC(N)=O)NC(=O)[C@@H](NC(=O)[C@@H](NC(=O)[C@@H]1CSSC[C@H](NC(=O)[C@H](CCCCN)NC(=O)CC[C@H](NC(=O)CCCCCCCCCCCCCCCCCCC(=O)O)C(=O)O)C(=O)N[C@@H](CC(N)=O)C(=O)N[C@@H]([C@@H](C)O)C(=O)N[C@@H](C)C(=O)N[C@@H]([C@@H](C)O)C(=O)N1)[C@@H](C)O)C(C)C)C(=O)N[C@@H](Cc1ccc(O)cc1)C(=O)N[C@@H](CCC(N)=O)C(=O)N[C@@H](Cc1ccccc1)C(=O)N[C@H](C(=O)N[C@@H](CC(=O)O)C(=O)N[C@@H](CCCCN)C(=O)N[C@@H](CC(=O)O)C(=O)N[C@@H](CCCCN)C(=O)N[C@@H](CC(=O)O)C(=O)N[C@@H](CC(N)=O)C(=O)N[C@H](C(=O)N[C@@H](C)C(=O)N1CCC[C@H]1C(=O)N[C@@H](CCCNC(=N)N)C(=O)N[C@H](C(=O)N[C@@H](CCCCN)C(=O)N[C@H](C(=O)NCC(=O)N[C@@H](CO)C(=O)N[C@@H](CC(N)=O)C(=O)NCC(=O)N1C[C@H](O)C[C@H]1C(N)=O)C(C)C)[C@@H](C)O)C(C)C)[C@@H](C)O [compound 99] ({C20 diacid-γGlu}-KCNTATCTVQRLAHQIYQFTDKDKDNVAPRTKVGSNG[Hyp]-NH2; disulfide 2-7) yielded an EC50 of 0.017 nM.
CC[C@H](C)[C@H](NC(=O)[C@H](CCC(N)=O)NC(=O)[C@H](Cc1c[nH]cn1)NC(=O)[C@H](C)NC(=O)[C@H](CC(C)C)NC(=O)[C@H](CCCNC(=N)N)NC(=O)[C@H](C)NC(=O)[C@@H](NC(=O)[C@@H](NC(=O)[C@@H]1CSSC[C@H](NC(=O)[C@H](CCCCN)NC(=O)CC[C@H](NC(=O)CCCCCCCCCCCCCCCCCCC(=O)O)C(=O)O)C(=O)N[C@@H](CC(N)=O)C(=O)N[C@@H]([C@@H](C)O)C(=O)N[C@@H](C)C(=O)N[C@@H]([C@@H](C)O)C(=O)N1)[C@@H](C)O)C(C)C)C(=O)N[C@@H](C)C(=O)N[C@@H](CCC(N)=O)C(=O)N[C@@H](Cc1ccccc1)C(=O)N[C@H](C(=O)N[C@@H](CC(=O)O)C(=O)N[C@@H](CCCCN)C(=O)N[C@@H](CC(=O)O)C(=O)N[C@@H](CCCCN)C(=O)N[C@@H](CC(=O)O)C(=O)N[C@@H](CC(N)=O)C(=O)N[C@H](C(=O)N[C@@H](C)C(=O)N1CCC[C@H]1C(=O)N1CCC[C@H]1C(=O)N[C@H](C(=O)N[C@@H](CC(N)=O)C(=O)N[C@H](C(=O)NCC(=O)N[C@@H](CO)C(=O)N[C@@H](CC(N)=O)C(=O)NCC(=O)N1C[C@H](O)C[C@H]1C(N)=O)C(C)C)[C@@H](C)O)C(C)C)[C@@H](C)O [compound 107] ({C20 diacid-γGlu}-KCNTATCTVARLAHQIAQFTDKDKDNVAPPTNVGSNG[Hyp]-NH2; disulfide 2-7) was tested, and the EC50 was 0.019 nM.
